# According to PMC5938390, “Tachyplesin Causes Membrane Instability That Kills Multidrug-Resistant Bacteria by Inhibiting the 3-Ketoacyl Carrier Protein Reductase FabG” (Frontiers in Microbiology, 2018):
# Positions of bridges follow the written chain, without caps; N, C: chain ends. Residues, ends and D or L forms follow the SMILES beside them.
# Experiments:
# [1] = tested on: 293FT (human embryonic kidney cell line); conditions: concentration increased from 100 mg/L to 200 mg/L, XTT
# Protocol: (§1) These studies were carried out as we previously reported with slight modifications and briefly introduced as follows ([Liu et al., 2017]). […] Cytotoxicity in different cell lines was assessed using the Cell Proliferation Kit II (XTT) (Roche), and cytotoxicity in hemocytes was evaluated by the increase in the absorbance at 540 nm after peptide incubation. Membrane rupture was indicated by the entrance of the DNA-binding fluorescent dye PI into MDR clinical isolates of P. aeruginosa strain 1409. Membrane translocation of N-terminal FITC-conjugated tachyplesin III (purity ≥ 95%, synthesized by GL Biochem Co., Ltd, Shanghai, China) into MDR clinical isolates of Acinetobacter baumannii strain 1408 were detected by confocal laser-scanning microscopy.
# (§2) Cytotoxicity of tachyplesin III was tested by hemolysis and cell viability assays. (A) Tachyplesin III dissolved in 0.9% saline was added to mouse erythrocytes that were diluted with the same buffer. After 30 min of incubation at 37°C and then centrifugation at 1000 g for 15 min, supernatants were diluted 1:4 with 0.9% saline, and absorbance at 540 nm was tested. With 1% Triton X-100 (v/v) to determine 100% hemolysis and 0.9% saline as the negative control, the hemolysis rate was calculated as [(Absorbancesample^-Absorbancecontrol)/(Absorbance100%^-Absorbancecontrol)] × 100. Cytotoxicity was assessed using the Cell Proliferation Kit II (XTT) (Roche) for (B) L929 (mouse fibroblast cell line), (C) 293FT (human embryonic kidney cell line) and (D) A549 (adenocarcinomic human alveolar basal epithelial cell line) cells. Absorbance [A492-A690 nm] was used to quantify viable cells.
# [2] = tested on: A549 (adenocarcinomic human alveolar basal epithelial cell line); conditions: concentration increased from 200 mg/L to 400 mg/L, XTT
# Protocol: as §1, §2
# [3] = tested on: L929 (mouse fibroblast cell line); conditions: concentration increased from 50 mg/L to 100 mg/L, XTT
# Protocol: as §1, §2
# E. coli 513 = assay: Transcriptome analysis (RNA sequencing, FPKM, DESeq); type: cell-based, Escherichia coli; conditions: Ec; Ta 16 μg/ml, 30 min, 37°C
# Protocol: The Vitek 32 system (bioMerieux, France) and 16S rDNA sequencing were used to verify the clinical isolates A. baumannii 1408, P. aeruginosa 1409, Klebsiella pneumoniae 5 and E. coli 513, which were grown overnight in Luria-Bertani (LB) medium at 37°C with constant shaking at 220 rpm to reach the middle of their logarithmic growth phase. […] After the addition of 2 volumes of RNAprotect Bacteria Reagent (QIAGEN) to stabilized RNA, samples were vortexed for 5 s, incubated for 5 min at room temperature (15–25°C) and collected by centrifugation at 4°C for 5 min at 4000 g.
# RNA isolation and sequencing were performed by Novogene Bioinformatics Technology Co., Ltd. (Beijing, China) as previously described ([Liu B. et al., 2014]). Clean reads were mapped to the corresponding bacterial genomes using Bowtie 2 software ([Langmead and Salzberg, 2012]). Gene expression was calculated using the FPKM (expected number of fragments per kilobase of transcript sequence per millions of base pairs sequenced) method with HTSeq software (union model) ([Anders et al., 2015]). Differentially expressed genes were selected based on the DESeq R package with Padj values < 0.05 ([Anders and Huber, 2010]). KEGG pathway analysis was performed using KOBAS (2.0), and the corrected p value cut-off was set at 0.05 ([Li et al., 2015]).
smiles,measurement,setting,value
"CC[C@H](C)[C@@H]1NC(=O)CNC(=O)[C@H](CCCNC(=N)N)NC(=O)[C@H](Cc2ccc(O)cc2)NC(=O)[C@@H]2CSSC[C@H](NC1=O)C(=O)N[C@@H](Cc1ccc(O)cc1)C(=O)N[C@@H](CCCNC(=N)N)C(=O)N[C@@H](CCCCN)C(=O)N[C@H](C(=O)N[C@@H](CCCNC(=N)N)C(N)=O)CSSC[C@H](NC(=O)[C@H](Cc1c[nH]c3ccccc13)NC(=O)[C@@H](N)CCCCN)C(=O)N[C@@H](Cc1ccccc1)C(=O)N[C@@H](CCCNC(=N)N)C(=O)N[C@@H](C(C)C)C(=O)N2 [tachyplesin III] (H-KWCFRVCYRGICYRKCR-NH2; disulfide 3-16, 7-12 (inferred); N-terminus and C-terminus assumed)",cell viability,[1],Dramatic decreases in viability
same,cell viability,[2],Dramatic decreases in viability
same,cell viability,[3],declined sharply
same,"Fold change after Ta treatment, gene b1093 (3-ketoacyl-acyl carrier protein reductase)",E. coli 513,1.11
same,"Fold change after Ta treatment, gene b3846 (3-hydroxyacyl-CoA dehydrogenase)",E. coli 513,2.3
